Values of other authors, collected in patent US4115541A (priority 1975, dated 1978).

Conditions: physical; cited from earlier work

SMILES	half-life (radionuclide) [h]
[18FH] [fluorine-18]	1.83
[99Tc] [technitium-99m]	6
